ChEMBL document CHEMBL1146804, “Estrogen receptor ligands. Part 6: Synthesis and binding affinity of dihydrobenzodithiins” (Bioorg Med Chem Lett, 2004)

Assays:
[1] = test system: MCF7; assay: Inhibition of MCF-7 cancer cell proliferation; assay type: functional, cell-based; details: Homo sapiens
[2] = target: T1, Estrogen receptor (Homo sapiens, UniProt P03372)
T1 sequence (P03372 whole entry): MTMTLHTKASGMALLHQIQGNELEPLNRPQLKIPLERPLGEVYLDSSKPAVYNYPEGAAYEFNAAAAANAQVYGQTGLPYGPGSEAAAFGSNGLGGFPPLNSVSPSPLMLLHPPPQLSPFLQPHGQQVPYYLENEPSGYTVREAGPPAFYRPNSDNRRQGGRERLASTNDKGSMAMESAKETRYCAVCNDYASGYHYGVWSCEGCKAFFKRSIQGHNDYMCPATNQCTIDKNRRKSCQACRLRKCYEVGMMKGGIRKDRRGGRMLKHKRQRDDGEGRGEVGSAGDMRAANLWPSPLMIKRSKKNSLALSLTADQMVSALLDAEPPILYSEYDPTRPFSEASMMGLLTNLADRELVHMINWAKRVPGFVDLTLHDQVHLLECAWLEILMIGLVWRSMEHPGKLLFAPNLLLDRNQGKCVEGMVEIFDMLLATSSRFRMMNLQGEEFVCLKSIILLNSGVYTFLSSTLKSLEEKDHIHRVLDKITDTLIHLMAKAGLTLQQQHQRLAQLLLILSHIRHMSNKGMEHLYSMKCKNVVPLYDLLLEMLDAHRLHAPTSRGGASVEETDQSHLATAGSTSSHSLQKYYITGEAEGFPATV
Description: Binding affinity for human estrogen receptor alpha

[3] = target: Estrogen receptor beta (Homo sapiens, UniProt Q92731)
Description: Binding affinity for human estrogen receptor beta

[4] = test system: MCF7; assay: Inhibition of MCF-7 cancer cell proliferation; Average of 7 measurements; assay type: functional, cell-based; details: Homo sapiens
[5] = test system: MCF7; assay: Inhibition of MCF-7 cancer cell proliferation; Average of 5 measurements; assay type: functional, cell-based; details: Homo sapiens
[6] = test system: MCF7; assay: Inhibition of MCF-7 cancer cell proliferation; Average of 2 measurements; assay type: functional, cell-based; details: Homo sapiens

Estrogen receptor beta, sequence (Q92731 whole entry): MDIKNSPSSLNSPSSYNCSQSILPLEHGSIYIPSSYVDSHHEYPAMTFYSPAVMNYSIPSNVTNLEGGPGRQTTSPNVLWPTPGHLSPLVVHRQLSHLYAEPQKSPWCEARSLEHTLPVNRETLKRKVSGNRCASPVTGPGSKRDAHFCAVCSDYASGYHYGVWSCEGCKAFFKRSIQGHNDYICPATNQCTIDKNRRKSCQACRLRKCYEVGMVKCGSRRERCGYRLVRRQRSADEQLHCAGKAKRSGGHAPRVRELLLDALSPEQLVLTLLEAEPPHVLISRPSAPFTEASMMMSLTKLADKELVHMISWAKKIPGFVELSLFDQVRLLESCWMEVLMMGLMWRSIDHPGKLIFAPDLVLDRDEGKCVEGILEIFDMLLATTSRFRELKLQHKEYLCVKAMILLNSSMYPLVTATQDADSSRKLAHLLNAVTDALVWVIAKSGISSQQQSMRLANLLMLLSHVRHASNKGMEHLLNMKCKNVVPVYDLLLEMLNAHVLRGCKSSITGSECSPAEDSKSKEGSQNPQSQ

Row | IC50 [1] | IC50 [2] | IC50 [3] | IC50 [4] | IC50 [5] | IC50 [6] | Structure (SMILES)
1 | 67 nM | 5 nM | 111 nM | – | – | – | Oc1ccc([C@H]2Sc3cc(O)ccc3S[C@H]2c2ccc(OCCN3CCCCC3)c(Br)c2)cc1
2 | – | – | – | 3 nM | – | – | Oc1ccc([C@H]2Sc3cc(O)ccc3O[C@H]2c2ccc(OCCN3CCCCC3)cc2)cc1
3 | 112 nM | 21 nM | 326 nM | – | – | – | Oc1ccc([C@H]2Sc3cc(O)ccc3S[C@H]2c2ccc(OCCN3CCCCC3)cc2)cc1
4 | – | 1 nM | 38 nM | – | 0.6 nM | – | Oc1cccc([C@H]2Sc3cc(O)ccc3O[C@H]2c2ccc(OCCN3CCCC3)cc2)c1
5 | 564 nM | 15 nM | 583 nM | – | – | – | Oc1cccc([C@H]2Sc3cc(O)ccc3S[C@H]2c2ccc(OCCN3CCCCC3)cc2)c1
6 | – | 4 nM | – | – | – | 0.4 nM | Oc1cccc([C@H]2Sc3cc(O)ccc3O[C@H]2c2ccc(OCCN3CCCCC3)cc2)c1
7 | 123 nM | 18 nM | 266 nM | – | – | – | Oc1ccc([C@H]2Sc3cc(O)ccc3S[C@H]2c2ccc(OCCN3CCCC3)cc2)cc1

Row | Structure (SMILES) | IC50 [1] | IC50 [2] | IC50 [3] | IC50 [4] | IC50 [5] | IC50 [6]
8 | Oc1ccc([C@H]2Sc3cc(O)ccc3S[C@H]2c2ccc(OCCN3CCCC3)c(Br)c2)cc1 | 114 nM | 4 nM | 87 nM | – | – | –
9 | Oc1cccc([C@H]2Sc3cc(O)ccc3S[C@H]2c2ccc(OCCN3CCCCC3)c(Br)c2)c1 | 152 nM | 4 nM | 161 nM | – | – | –
